Measured values from patent US11774396B2, “Systems and methods for patterning and spatial electrochemical mapping of cells” (President and Fellows of Harvard College, priority 2020, dated 2023).

Key:
MDCK cells [1] = tested on: MDCK cells
Excerpt: This example describes a method using cross-electrode impedance mapping to quantify cell adhesion.
Ethylenediaminetetraacetic acid (EDTA) is applied to the cells. EDTA is a calcium chelator that removes Ca^2+ needed for integrin proteins to maintain cell adhesion.
FIG. 6b is a data plot showing mean normalized impedances for different regions of the cell culture over time as specified in the map 601. FIG. 6cc are histograms of the normalized impedance values before, during, and after a washout of EDTA across the array.

MDCK cells [2] = assay: Wound healing assay: electrochemical patterning and impedance mapping of regrowth; assay type: cell-based, Canine; details: 1 μM, over the course of 72 hours; control culture took ~3 days to fill in the wound
Excerpt: This example describes a combined application of both the cross-electrode impedance mapping and cell patterning is a wound healing assay.
These assays gauge cell growth rate and metabolism and can be useful for screening drugs affecting these parameters. Compared to the electrochemical patterning described herein, other tools mechanically generate a wound in a cell culture via a mechanical scratch which is both difficult to control and limiting in terms of wound pattern.
In this example, a wound is made in MDCK cells and then the growth is mapped in real-time. […] These patterns were defined by applying electrode currents of −10 nA for 40 s versus a Ag/AgCl pseudo reference electrode. The regrowth of the culture was then measured using the impedance mapping method.

## O=C(O)CN(CCN(CC(=O)O)CC(=O)O)CC(=O)O [EDTA, Ethylenediaminetetraacetic acid]
MDCK cells [1]; 5 mM EDTA application at t=~5 min
  time course over which the cells detach with EDTA applied: ~50 min
MDCK cells [1]; EDTA washed out by adding normal culture media
  time course over which the cells re-attach after EDTA washout: ~200 min

## C=C1[C@@H](C)[C@H]2[C@H](Cc3ccccc3)NC(=O)[C@]23OC(=O)/C=C/[C@H](O)CCC[C@@H](C)C/C=C/[C@H]3[C@@H]1O [cytochalasin B]
MDCK cells [2]
  regrowth of the wound in the cell culture (normalized cross-electrode impedance maps): very little growth
